Assay results taken from patent US11560380B2, “Substituted naphthalene diimides and their use” (UCL Business Ltd, priority 2019, dated 2023).
Read-outs that look alike come from different tables or passages of the source.

Legend:
PC-3 = assay: 72 hr XTT cell viability assay, PC-3; format: cell-based; conditions: Homo sapiens; PC-3, 72 hr XTT; read-out: IC50 cell growth inhibition
Source text: (§1) The CyQUANT XTT Cell Viability Assay (Invitrogen) is a complete, optimized assay that generates a consistent colorimetric detection of viable mammalian cells. The assay kit consists of two reagents, XTT Reagent (2,3-bis-(2-methoxy-4-nitro-5-sulfophenyl)-2H-tetrazolium-5-carboxanilide) and Electron Coupling Reagent. XTT Reagent is used to assess cell viability as a function of cellular redox potential, and the electron coupling reagent improves the dynamic range of the assay. The kit was used as per the manufacturers' instructions.

LNCaP = assay: 72 hr XTT cell viability assay, LNCaP; format: cell-based; conditions: Homo sapiens, read-out: IC50 cell growth inhibition
Source text: as §1

MIA-PACA2 cells = assay: MTS cell proliferation assay (CellTiter 96 AQueous One Solution), 96 hr; format: cell-based; conditions: Homo sapiens, MIA PaCa-2, 96 hr MTS assay
Source text: The CellTiter 96® AQueous One Solution Cell Proliferation Assay ([…]) is a colorimetric method for determining the number of viable cells in proliferation or cytotoxicity assays. The CellTiter 96® AQueous One Solution Reagent contains a novel tetrazolium compound [3-(4,5-dimethylthiazol-2-yl)-5-(3-carboxymethoxyphenyl)-2-(4-sulfophenyl)-2H-tetrazolium, inner salt; MTS] and an electron coupling reagent (phenazine ethosulfate; PES). PES has enhanced chemical stability, which allows it to be combined with MTS to form a stable solution. The MTS tetrazolium compound (Owen's reagent) is bioreduced by cells into a colored formazan product that is soluble in tissue culture medium. Assays are performed by adding a small amount of the CellTiter 96@ AQueous One Solution Reagent directly to culture wells, incubating for 1-4 hours and then recording the absorbance at 490 nm with a 96-well plate reader. The quantity of formazan product as measured by absorbance at 490 nm is directly proportional to the number of living cells in culture. The kit was used as per the manufacturers' instructions. After 96-hour incubation with each example compound in MIA-PACA2 cells, the cell proliferation of each sample was measured using the MTS Cell Titre 96 Aqueous One Solution Cell Proliferation Assay (Promega Ltd). The percentage of inhibition was calculated against the mean of the DMSO treated controls samples.

[1] = Stability in saline at 0° C.; format: physicochemical
[2] = Mouse microsomal stability; format: in vitro ADME; conditions: mouse microsomes; read-out: t1/2 mouse microsomal stability
[3] = Plasma protein binding in vitro; format: in vitro ADME
[4] = In vitro blood/plasma partitioning; format: in vitro ADME; conditions: blood and plasma
GQ = assay: FRET melting with GQ; format: binding
MIA-PACA2 = assay: 96 hr SRB cell growth inhibition, MIA-PACA2; format: cell-based; conditions: for IC50: Homo sapiens, MIA PaCa-2, MIA-PACA2, 96 hr SRB
PANC-1 = assay: 96 hr SRB cell growth inhibition, PANC-1; format: cell-based; conditions: Homo sapiens; PANC-1, 96 hr SRB
CAPAN-1 = assay: 96 hr SRB cell growth inhibition, CAPAN-1; format: cell-based; conditions: Homo sapiens; CAPAN-1, 96 hr SRB
BX-PC3 = assay: 96 hr SRB cell growth inhibition, BX-PC3; format: cell-based; conditions: Homo sapiens, BXPC-3; BX-PC3, 96 hr SRB
MIA-PACA2^gemR = assay: 96 hr SRB cell growth inhibition, MIA-PACA2 gemR; format: cell-based; conditions: Homo sapiens, MIA PaCa-2
MIA-PACA2 tumours = assay: In vivo xenograft efficacy study, MIA-PACA2 model; conditions: for complete regression in tumour volume at the end of the dosing period: 1 mg/kg IV, 28 days; for tumours not showing complete regression, versus vehicle control: minority of tumours in the group
Procedure: Mice aged 5-7 weeks weighing approximately 25-32 g were implanted for the study and purchased from Charles River. The pancreatic tumour cell implantation procedure involved MIA-PACA2 cells (1×10^7 in Matrigel) being implanted subcutaneously using a 22-gauge needle onto the rear flank of the mice. Parameters evaluated include: tumour size and animal bodyweight. Tumour volume was measured three times weekly and bodyweight at least 3 times weekly. Allocation to treatment groups was done randomly when tumours reached approximately 50 mm^3 for animals in the efficacy study. […] Each group comprised 8 animals. All protocols used in this study were approved by the appropriate Animal Welfare and Ethical Review Board, and all procedures were carried out under the guidelines of the UK Animal (Scientific Procedures) Act 1986.
The data shown is mean±SD n=8 up to day 23 and n=4 to the end of the study. […] The starting tumour volumes were […]. Example 1 was active in both of the dosage regimens examined, 1× weekly and 2× weekly, both at a 1 mg/kg dose. Both had ⅝ complete regression in tumour volume at the end of the dosing period.

DU145 = assay: 72 hr XTT cell viability assay, DU145; format: cell-based; conditions: Homo sapiens, DU-145; DU145, 72 hr XTT; read-out: IC50 cell growth inhibition
Source text: as §1

VCaP = assay: 72 hr XTT cell viability assay, VCaP; format: cell-based; conditions: Homo sapiens, read-out: IC50 cell growth inhibition
Source text: as §1

22RV1 = assay: 72 hr XTT cell viability assay, 22RV1; format: cell-based; conditions: Homo sapiens; 22RV1, 72 hr XTT; read-out: IC50 cell growth inhibition
Source text: as §1

[5] = Aqueous solubility of salt; format: physicochemical; conditions: water; HCl/formate salt

With `C[C@]12CC[C@H](O)CC1=CC[C@@H]1[C@@H]2CC[C@]2(C)C(c3cccnc3)=CC[C@@H]12` [Abiraterone] the IC50 (PC-3) was 4820 nM and the IC50 (LNCaP) was 3860 nM.

In the case of `O=C1c2cc(-c3ccc(CN4CCCC4)cc3)c3c4c(cc(NCCN5CCCC5)c(c24)C(=O)N1CCCN1CCOCC1)C(=O)N(CCCN1CCOCC1)C3=O` [Example 1, 2,7-bis(3-morpholinopropyl)-4-((2-(pyrrolidin-1-yl)ethyl)amino)-9-(4-(pyrrolidin-1-ylmethyl)phenyl)benzo[lmn][3,8]phenanthroline-1,3,6,8(2H,7H)-tetraone], the IC50 (MIA-PACA2 cells; read-out: ABS IC50) is reported as 0.056 nM, the IC50 (MIA-PACA2 cells; read-out: Rel IC50) is reported as 0.035 nM and the “Stability in saline at 0° C.” value [1] is reported as >1 month. The half-life [2] was 4.47 h, the fraction unbound [3] was 0.339 and the blood plasma ratio [4] was 6.1. For the same compound, the “FRET ΔTm, ° C. with GQ” value (GQ) was 23.1 °C, the IC50 (MIA-PACA2) was 1.3 nM and the “greater cellular potency relative to C1” value (MIA-PACA2; compared with C1) was 10 fold. It also gave an IC50 (PANC-1) of 1.4 nM, an IC50 (CAPAN-1) of 5.9 nM and an IC50 (BX-PC3) of 2.6 nM. The IC50 (MIA-PACA2^gemR) was 3.8 nM, the “complete regression in tumour volume at the end of the dosing period” value (MIA-PACA2 tumours; 1× weekly) was “⅝” and the “complete regression in tumour volume at the end of the dosing period” value (MIA-PACA2 tumours; 2× weekly) was “⅝”. For the same compound, the “tumour regrowth in complete regression cohorts” value (MIA-PACA2 tumours; 28 days post-dosing) was “no regrowth seen after 28 days post-dosing”, the “tumour growth and tumour size” value (MIA-PACA2 tumours; MIA-PACA2 xenograft, 28 days IV administration, followed by 28 days measurement) was “inhibited the growth of the pancreatic tumour and reduced the tumour's size considerably more than the comparative compound C1 or the known anti-cancer drug, Gemcitabine” and the tolerability (MIA-PACA2 tumours; compound and dosing schedules, IV, mice) was “well-tolerated showing no sign of adverse effects”. The “tumours not showing complete regression, versus vehicle control” value (MIA-PACA2 tumours) was “reductions in tumour growth, leading to consistently smaller volumes than in the vehicle control groups”, the IC50 (PC-3) was 3 nM and the IC50 (DU145) was 32 nM. It also gave an IC50 (LNCaP) of 247 nM, an IC50 (VCaP) of 68 nM and an IC50 (22RV1) of 90 nM.

In the case of `O=C1c2cc(-c3ccc(CN4CCOCC4)cc3)c3c4c(cc(NCCN5CCCC5)c(c24)C(=O)N1CCCN1CCOCC1)C(=O)N(CCCN1CCOCC1)C3=O` [Example 2, 4-(4-(morpholinomethyl)phenyl)-2,7-bis(3-morpholinopropyl)-9-((2-(pyrrolidin-1-yl)ethyl)amino)benzo[lmn][3,8]phenanthroline-1,3,6,8(2H,7H)-tetraone], the IC50 (MIA-PACA2 cells; read-out: ABS IC50) is reported as 0.292 nM and the IC50 (MIA-PACA2 cells; read-out: Rel IC50) is reported as 0.188 nM.

`O=C1c2cc(-c3cccc(CN4CCCC4)c3)c3c4c(cc(NCCN5CCCC5)c(c24)C(=O)N1CCCN1CCOCC1)C(=O)N(CCCN1CCOCC1)C3=O` [Example 3, 2,7-bis(3-morpholinopropyl)-4-((2-(pyrrolidin-1-yl)ethyl)amino)-9-(3-(pyrrolidin-1-ylmethyl)phenyl)benzo[lmn][3,8]phenanthroline-1,3,6,8(2H,7H)-tetraone] showed an IC50 (MIA-PACA2 cells; read-out: ABS IC50) of 0.284 nM and an IC50 (MIA-PACA2 cells; read-out: Rel IC50) of 0.282 nM.

Compound `O=C1c2cc(-c3ccc(CN4CCCCC4)cc3)c3c4c(cc(NCCN5CCCC5)c(c24)C(=O)N1CCCN1CCOCC1)C(=O)N(CCCN1CCOCC1)C3=O` [Example 4, 2,7-bis(3-morpholinopropyl)-4-(4-(piperidin-1-ylmethyl)phenyl)-9-((2-(pyrrolidin-1-yl)ethyl)amino)benzo[lmn][3,8]phenanthroline-1,3,6,8(2H,7H)-tetraone] has an IC50 (MIA-PACA2 cells; read-out: ABS IC50) of 0.175 nM and an IC50 (MIA-PACA2 cells; read-out: Rel IC50) of 0.132 nM.

`CCN(CC)Cc1ccc(-c2cc3c4c(c(NCCN5CCCC5)cc5c4c2C(=O)N(CCCN2CCOCC2)C5=O)C(=O)N(CCCN2CCOCC2)C3=O)cc1` [Example 5, 4-(4-((diethylamino)methyl)phenyl)-2,7-bis(3-morpholinopropyl)-9-((2-(pyrrolidin-1-yl)ethyl)amino)benzo[lmn][3,8]phenanthroline-1,3,6,8(2H,7H)-tetraone] showed an IC50 (MIA-PACA2 cells; read-out: ABS IC50) of 0.18 nM and an IC50 (MIA-PACA2 cells; read-out: Rel IC50) of 0.239 nM.

For `O=C1c2cc(-c3ccc(CNC4CCCC4)cc3)c3c4c(cc(NCCN5CCCC5)c(c24)C(=O)N1CCCN1CCOCC1)C(=O)N(CCCN1CCOCC1)C3=O` [Example 6, 4-(4-((cyclopentylamino)methyl)phenyl)-2,7-bis(3-morpholinopropyl)-9-((2-(pyrrolidin-1-yl)ethyl)amino)benzo[lmn][3,8]phenanthroline-1,3,6,8(2H,7H)-tetraone], the IC50 (MIA-PACA2 cells; read-out: ABS IC50) was 0.102 nM and the IC50 (MIA-PACA2 cells; read-out: Rel IC50) was 0.099 nM.

`O=C1c2cc(-c3ccc(CN4CCCCCC4)cc3)c3c4c(cc(NCCN5CCCC5)c(c24)C(=O)N1CCCN1CCOCC1)C(=O)N(CCCN1CCOCC1)C3=O` [Example 7, 4-(4-(azepan-1-ylmethyl)phenyl)-2,7-bis(3-morpholinopropyl)-9-((2-(pyrrolidin-1-yl)ethyl)amino)benzo[lmn][3,8]phenanthroline-1,3,6,8(2H,7H)-tetraone] gave an IC50 (MIA-PACA2 cells; read-out: ABS IC50) of 0.182 nM and an IC50 (MIA-PACA2 cells; read-out: Rel IC50) of 0.117 nM.

Work on `CN1CCN(Cc2ccc(-c3cc4c5c(c(NCCN6CCCC6)cc6c5c3C(=O)N(CCCN3CCOCC3)C6=O)C(=O)N(CCCN3CCOCC3)C4=O)cc2)CC1` [Example 8] yielded an IC50 (MIA-PACA2 cells; read-out: ABS IC50) of 0.277 nM and an IC50 (MIA-PACA2 cells; read-out: Rel IC50) of 0.174 nM.

In the case of `O=C1c2ccc3c4c(c(NCCN5CCCC5)cc(c24)C(=O)N1CCCN1CCOCC1)C(=O)N(CCCN1CCOCC1)C3=O` [Example C1, reference compound], the solubility [5] is reported as > 5000 µg/mL, the “Stability in saline at 0° C.” value [1] is reported as >1 month and the half-life [2] is reported as > 8 h. The fraction unbound [3] was 0.65, the blood plasma ratio [4] was 10.9 and the “FRET ΔTm, ° C. with GQ” value (GQ) was 17.6 °C. For the same compound, the IC50 (MIA-PACA2) was 13 nM, the IC50 (PANC-1) was 15.6 nM and the IC50 (CAPAN-1) was 26.5 nM. The IC50 (BX-PC3) was 15.5 nM, the IC50 (MIA-PACA2^gemR) was 14.9 nM and the “tumours not showing complete regression, versus vehicle control” value (MIA-PACA2 tumours) was “reductions in tumour growth, leading to consistently smaller volumes than in the vehicle control groups”. For the same compound, the IC50 (PC-3) was 94 nM, the IC50 (DU145) was 113 nM and the IC50 (LNCaP) was 394 nM. It also gave an IC50 (VCaP) of 135 nM and an IC50 (22RV1) of 90 nM.
